Activity calls are given as the source filed them.
How the values were obtained:
[1] = molecular target: T1, Mannose-6-phosphate isomerase (Homo sapiens, UniProt P34949); assay: human PMI inhibitors, high substrate, primary screen, biochemical, fluorescence intensity, high mannose 6-phosphate (AID 1220)
T1 sequence (P34949 whole entry): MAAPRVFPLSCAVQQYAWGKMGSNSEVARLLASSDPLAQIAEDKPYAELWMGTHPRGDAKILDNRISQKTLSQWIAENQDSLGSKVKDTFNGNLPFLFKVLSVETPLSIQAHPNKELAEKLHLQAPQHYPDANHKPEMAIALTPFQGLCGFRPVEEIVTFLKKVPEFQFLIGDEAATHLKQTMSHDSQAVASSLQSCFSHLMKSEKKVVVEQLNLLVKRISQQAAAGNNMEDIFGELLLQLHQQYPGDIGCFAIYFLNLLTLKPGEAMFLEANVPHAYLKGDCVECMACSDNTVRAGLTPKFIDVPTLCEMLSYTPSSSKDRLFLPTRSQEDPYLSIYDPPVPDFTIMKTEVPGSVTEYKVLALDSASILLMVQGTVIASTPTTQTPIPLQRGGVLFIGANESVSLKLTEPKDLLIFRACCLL

Protein RecA = molecular target: T2, Protein RecA (Mycobacterium tuberculosis, UniProt P9WHJ3); assay: Fluorescence Cell-Free Homogeneous Dose Retest to Identify Inhibitors of RecA-Intein Splicing Activity. [Related pubchem assays (depositor defined):AID2097, AID2223, AID489010, AID492950]; type: functional
T2 sequence (P9WHJ3 whole entry): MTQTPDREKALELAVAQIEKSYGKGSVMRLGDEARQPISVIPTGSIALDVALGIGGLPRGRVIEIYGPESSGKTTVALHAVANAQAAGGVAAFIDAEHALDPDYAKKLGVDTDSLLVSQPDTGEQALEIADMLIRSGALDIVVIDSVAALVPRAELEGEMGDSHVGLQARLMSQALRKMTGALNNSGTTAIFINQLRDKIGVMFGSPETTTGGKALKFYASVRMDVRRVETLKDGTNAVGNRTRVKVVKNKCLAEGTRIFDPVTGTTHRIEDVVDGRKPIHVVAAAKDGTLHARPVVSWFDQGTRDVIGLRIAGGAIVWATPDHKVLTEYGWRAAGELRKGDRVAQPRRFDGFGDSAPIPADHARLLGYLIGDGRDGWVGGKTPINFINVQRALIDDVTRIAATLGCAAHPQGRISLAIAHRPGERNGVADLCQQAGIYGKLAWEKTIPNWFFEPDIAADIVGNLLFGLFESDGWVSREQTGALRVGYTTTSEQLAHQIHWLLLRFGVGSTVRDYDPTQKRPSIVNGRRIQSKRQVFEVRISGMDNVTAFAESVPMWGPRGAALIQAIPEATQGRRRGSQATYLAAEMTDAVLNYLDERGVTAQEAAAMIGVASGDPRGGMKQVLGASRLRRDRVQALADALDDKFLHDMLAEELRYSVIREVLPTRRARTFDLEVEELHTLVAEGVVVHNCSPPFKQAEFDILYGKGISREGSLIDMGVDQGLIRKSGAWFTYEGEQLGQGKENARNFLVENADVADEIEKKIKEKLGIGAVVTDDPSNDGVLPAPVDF

[2] = molecular target: T3, Replicative DNA helicase DnaB (Mycobacterium tuberculosis, UniProt P9WMR3); assay: DnaB intein splicing inhibitors, dose response, biochemical, cell-free fluorescence (AID 449749); type: functional
T3 sequence (P9WMR3 whole entry): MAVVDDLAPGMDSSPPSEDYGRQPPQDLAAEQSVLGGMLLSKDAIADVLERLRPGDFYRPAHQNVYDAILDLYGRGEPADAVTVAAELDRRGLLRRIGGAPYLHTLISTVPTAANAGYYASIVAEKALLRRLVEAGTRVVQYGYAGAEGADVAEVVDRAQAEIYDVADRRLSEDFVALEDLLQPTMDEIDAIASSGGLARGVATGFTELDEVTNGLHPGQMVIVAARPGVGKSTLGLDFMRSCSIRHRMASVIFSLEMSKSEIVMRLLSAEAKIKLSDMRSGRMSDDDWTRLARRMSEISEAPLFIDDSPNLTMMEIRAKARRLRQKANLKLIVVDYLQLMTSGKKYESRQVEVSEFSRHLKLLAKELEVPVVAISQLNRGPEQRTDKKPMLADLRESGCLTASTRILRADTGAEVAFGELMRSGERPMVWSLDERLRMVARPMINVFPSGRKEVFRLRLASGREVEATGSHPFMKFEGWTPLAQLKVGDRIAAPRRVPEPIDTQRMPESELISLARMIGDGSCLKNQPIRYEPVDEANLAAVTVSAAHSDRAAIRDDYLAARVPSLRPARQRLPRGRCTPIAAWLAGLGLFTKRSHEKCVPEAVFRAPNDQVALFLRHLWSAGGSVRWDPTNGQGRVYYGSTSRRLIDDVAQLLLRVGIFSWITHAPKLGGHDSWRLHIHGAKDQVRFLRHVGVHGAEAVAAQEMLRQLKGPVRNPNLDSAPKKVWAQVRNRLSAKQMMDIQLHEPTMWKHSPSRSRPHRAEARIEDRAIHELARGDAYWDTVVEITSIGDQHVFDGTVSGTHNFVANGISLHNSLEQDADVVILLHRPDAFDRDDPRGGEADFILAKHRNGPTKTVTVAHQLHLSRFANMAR

[3] = molecular target: T4, Sentrin-specific protease 8 (Homo sapiens, UniProt Q96LD8); type: functional
T4 sequence (Q96LD8 whole entry): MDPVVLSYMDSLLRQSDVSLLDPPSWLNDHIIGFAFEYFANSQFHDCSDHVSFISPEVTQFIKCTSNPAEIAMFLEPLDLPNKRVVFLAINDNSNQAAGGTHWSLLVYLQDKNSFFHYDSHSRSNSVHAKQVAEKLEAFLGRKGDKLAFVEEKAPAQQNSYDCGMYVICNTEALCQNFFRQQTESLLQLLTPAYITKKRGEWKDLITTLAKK

[4] = molecular target: T4, Sentrin-specific protease 8; type: functional; remark: listed apart in the source
HT-1080 = assay: cytotoxicity in HT1080 fibrosarcoma cells, cell-based, fluorescence readout (AID 620); type: functional; conditions: Homo sapiens
[5] = molecular target: Luciferin 4-monooxygenase (Photinus pyralis, UniProt P08659); assay: Counter Screen for Luciferase-based Assay Positives. [Related pubchem assays: 620, 618, 411 ]
cells = type: functional
[6] = THP-1 cell cytotoxicity, dose response, cytotoxicity control for non-replicating M. tuberculosis project (AID 489025); type: functional
[7] = molecular target: T5, Short transient receptor potential channel 4 (Mus musculus, UniProt Q9QUQ5); assay: mouse TRPC4 channel inhibitors, dose response, cell-based, HEK293 TRPC4/mu-opioid, Fluo-4 calcium (AID 434942); type: functional;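 further: potency of inhibitors blocking the TRPC4 calcium response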
T5 sequence (Q9QUQ5 whole entry): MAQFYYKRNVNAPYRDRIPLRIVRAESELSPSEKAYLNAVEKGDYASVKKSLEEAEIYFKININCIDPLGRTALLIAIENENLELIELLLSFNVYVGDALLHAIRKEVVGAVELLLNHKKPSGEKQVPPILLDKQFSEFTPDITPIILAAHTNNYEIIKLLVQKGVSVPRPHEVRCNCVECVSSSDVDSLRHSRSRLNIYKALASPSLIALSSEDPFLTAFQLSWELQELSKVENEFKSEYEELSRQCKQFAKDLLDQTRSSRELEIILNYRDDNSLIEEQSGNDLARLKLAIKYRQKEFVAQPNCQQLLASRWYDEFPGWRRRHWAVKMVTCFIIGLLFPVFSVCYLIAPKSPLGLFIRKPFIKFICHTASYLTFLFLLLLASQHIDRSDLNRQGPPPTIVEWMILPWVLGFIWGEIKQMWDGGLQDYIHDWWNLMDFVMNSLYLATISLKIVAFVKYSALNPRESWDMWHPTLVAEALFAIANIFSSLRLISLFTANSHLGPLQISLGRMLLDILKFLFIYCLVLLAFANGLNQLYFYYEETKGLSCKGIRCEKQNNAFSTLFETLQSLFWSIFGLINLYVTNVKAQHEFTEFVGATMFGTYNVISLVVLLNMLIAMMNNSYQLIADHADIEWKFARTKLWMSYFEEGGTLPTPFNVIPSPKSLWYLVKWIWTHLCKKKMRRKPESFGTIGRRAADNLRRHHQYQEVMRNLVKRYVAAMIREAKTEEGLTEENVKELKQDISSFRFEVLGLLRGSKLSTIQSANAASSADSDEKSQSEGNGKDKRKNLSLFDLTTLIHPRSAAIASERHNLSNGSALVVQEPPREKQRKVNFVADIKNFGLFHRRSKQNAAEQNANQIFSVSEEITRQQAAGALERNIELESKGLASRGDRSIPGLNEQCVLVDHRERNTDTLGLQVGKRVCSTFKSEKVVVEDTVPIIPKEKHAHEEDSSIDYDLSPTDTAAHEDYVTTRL

Protein skinhead-1 = molecular target: T6, Protein skinhead-1 (Caenorhabditis elegans, UniProt P34707); type: functional
T6 sequence (P34707 whole entry): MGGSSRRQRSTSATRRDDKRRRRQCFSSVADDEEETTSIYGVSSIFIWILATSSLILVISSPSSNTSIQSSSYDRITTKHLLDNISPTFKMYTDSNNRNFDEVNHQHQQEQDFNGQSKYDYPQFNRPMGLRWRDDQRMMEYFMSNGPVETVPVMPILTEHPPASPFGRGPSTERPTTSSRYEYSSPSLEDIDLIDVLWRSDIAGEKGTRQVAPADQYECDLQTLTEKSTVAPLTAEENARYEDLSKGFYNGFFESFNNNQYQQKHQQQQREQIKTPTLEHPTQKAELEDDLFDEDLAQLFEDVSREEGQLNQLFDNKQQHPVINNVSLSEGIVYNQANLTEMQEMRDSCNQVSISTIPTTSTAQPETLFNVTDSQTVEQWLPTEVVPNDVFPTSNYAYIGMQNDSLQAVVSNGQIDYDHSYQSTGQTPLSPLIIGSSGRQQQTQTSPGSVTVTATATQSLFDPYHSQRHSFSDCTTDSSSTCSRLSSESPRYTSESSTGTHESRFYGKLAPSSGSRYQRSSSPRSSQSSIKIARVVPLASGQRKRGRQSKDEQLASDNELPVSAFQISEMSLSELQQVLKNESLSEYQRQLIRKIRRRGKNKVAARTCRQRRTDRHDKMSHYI

[8] = molecular target: T7, Heat shock factor protein 1 (Mus musculus, UniProt P38532); assay: HSF1 potentiators in luciferase reporter cells, confirmation, cell-based, NIH3T3, luminescence, dose retest (AID 435004); type: functional;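 further: stress induced by proteasome inhibitor MG132 added 30 min after compound; luciferase reporter driven by HSF1 response element in NIH3T3 cells; actives raise luminescence as potentiators of the MG132 stress response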
T7 sequence (P38532 whole entry): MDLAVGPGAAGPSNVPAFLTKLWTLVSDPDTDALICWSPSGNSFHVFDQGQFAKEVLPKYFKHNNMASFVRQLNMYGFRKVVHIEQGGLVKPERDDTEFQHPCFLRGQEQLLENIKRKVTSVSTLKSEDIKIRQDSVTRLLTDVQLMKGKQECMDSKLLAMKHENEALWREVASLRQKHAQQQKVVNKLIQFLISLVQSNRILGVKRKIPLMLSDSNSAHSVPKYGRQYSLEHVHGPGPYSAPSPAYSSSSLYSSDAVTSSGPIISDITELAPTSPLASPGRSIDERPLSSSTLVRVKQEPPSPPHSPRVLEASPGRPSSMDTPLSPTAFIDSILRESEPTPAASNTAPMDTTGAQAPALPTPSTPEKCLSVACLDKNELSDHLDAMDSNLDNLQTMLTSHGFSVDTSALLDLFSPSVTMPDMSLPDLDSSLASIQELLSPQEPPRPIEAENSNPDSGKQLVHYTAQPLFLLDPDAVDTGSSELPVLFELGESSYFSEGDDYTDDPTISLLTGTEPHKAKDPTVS

[9] = molecular target: DNA dC->dU-editing enzyme APOBEC-3G (Homo sapiens, UniProt Q9HC16); assay: Dose Response confirmation of small molecule APOBEC3G DNA Deaminase Inhibitors via a fluorescence-based single-stranded DNA deaminase assay. [Related pubchem assays (depositor defined):AID493012, AID493028]; type: functional
Large T antigen = Large T antigen (Simian virus 40, UniProt P03070); type: functional, Betapolyomavirus macacae;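 further: Confirmatory-stage PubChem screen for compounds that inhibit SV40 T antigen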
[10] = NIH-3T3 fibroblast cytotoxicity, dose response, cytotoxicity control, cell-based, fluorescence, Alamar Blue, secondary assay (AID 2327); type: functional;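 further: NIH-3T3 mouse fibroblasts cultured with fluconazole at 8 µg/mL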
[11] = THP-1 cell cytotoxicity, dose response, cytotoxicity control for Vif-APOBEC3G degradation inhibitor project, THP-1 cells (AID 1117359); type: functional; conditions: Human immunodeficiency virus 1, THP-1
Protein Tat = molecular target: T8, Protein Tat (Human immunodeficiency virus type 1 group M subtype B (isolate HXB2)(HIV-1), UniProt P04608); type: functional;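 further: tat binding to TAR RNA read out by fluorescence polarization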
T8 sequence (P04608 whole entry): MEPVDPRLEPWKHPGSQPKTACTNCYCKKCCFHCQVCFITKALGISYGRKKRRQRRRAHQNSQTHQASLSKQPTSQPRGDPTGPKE

Chain of Luciferin 4-monooxygenase (P08659 whole entry): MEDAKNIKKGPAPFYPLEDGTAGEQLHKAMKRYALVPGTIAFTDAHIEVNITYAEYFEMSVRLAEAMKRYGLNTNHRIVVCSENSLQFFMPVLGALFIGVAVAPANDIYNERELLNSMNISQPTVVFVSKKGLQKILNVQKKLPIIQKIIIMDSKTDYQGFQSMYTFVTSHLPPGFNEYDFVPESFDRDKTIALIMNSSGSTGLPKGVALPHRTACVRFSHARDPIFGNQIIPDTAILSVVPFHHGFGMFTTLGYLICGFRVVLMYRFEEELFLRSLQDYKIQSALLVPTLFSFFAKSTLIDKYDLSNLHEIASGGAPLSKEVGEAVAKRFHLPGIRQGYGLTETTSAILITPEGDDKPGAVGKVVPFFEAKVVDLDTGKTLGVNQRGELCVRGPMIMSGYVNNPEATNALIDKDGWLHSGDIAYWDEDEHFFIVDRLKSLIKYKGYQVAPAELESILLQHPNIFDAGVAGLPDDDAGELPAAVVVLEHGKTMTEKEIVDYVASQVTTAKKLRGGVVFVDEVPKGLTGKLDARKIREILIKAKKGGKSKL
Chain of Large T antigen (P03070 whole entry): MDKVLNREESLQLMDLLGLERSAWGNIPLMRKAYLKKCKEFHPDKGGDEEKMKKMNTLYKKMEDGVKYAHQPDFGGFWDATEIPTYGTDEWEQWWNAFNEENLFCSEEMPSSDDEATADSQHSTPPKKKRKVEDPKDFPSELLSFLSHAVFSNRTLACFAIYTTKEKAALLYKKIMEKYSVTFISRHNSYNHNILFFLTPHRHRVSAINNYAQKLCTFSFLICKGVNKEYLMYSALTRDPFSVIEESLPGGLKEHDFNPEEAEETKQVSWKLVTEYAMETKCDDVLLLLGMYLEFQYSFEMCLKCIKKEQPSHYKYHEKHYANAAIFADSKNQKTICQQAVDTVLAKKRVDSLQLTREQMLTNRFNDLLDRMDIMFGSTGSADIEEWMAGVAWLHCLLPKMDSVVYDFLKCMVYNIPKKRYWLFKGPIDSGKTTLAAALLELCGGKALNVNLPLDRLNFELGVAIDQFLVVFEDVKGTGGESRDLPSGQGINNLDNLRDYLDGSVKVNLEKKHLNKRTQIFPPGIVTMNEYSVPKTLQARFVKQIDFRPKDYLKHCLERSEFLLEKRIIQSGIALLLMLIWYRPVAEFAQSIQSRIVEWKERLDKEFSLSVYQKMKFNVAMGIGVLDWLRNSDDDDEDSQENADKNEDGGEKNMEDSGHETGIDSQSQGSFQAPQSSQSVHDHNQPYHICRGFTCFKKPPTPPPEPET
Chain of DNA dC->dU-editing enzyme APOBEC-3G (Q9HC16 whole entry): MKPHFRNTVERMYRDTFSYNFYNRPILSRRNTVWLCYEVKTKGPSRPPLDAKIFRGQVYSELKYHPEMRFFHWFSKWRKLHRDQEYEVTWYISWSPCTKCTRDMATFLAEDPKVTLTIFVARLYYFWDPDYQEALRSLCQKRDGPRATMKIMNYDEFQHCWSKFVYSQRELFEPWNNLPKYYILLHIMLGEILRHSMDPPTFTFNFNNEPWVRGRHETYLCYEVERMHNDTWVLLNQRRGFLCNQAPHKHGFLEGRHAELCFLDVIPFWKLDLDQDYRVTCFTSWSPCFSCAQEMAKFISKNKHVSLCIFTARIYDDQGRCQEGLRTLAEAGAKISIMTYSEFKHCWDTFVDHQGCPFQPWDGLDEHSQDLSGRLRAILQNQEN

O=C(CNc1ccc2ccccc2c1)N/N=C/c1ccc(C(=O)O)cc1
IC50 [1]: > 50 µM (not active)

O=C1CC(c2ccccc2)=NN1c1ccc([N+](=O)[O-])cc1
EC50 (Protein RecA): 4.05 µM (active)
AC50 [2]: 5.46 µM (active)
IC50 [3]: 33.2 µM (active)
IC50 [4]: 52.3 µM (active)

COc1ccc(C2=Nc3ccccc3OC2)cc1
EC50 (HT-1080): > 50 µM (not active)
EC50 [5]: < 0.2 µM (active)
IC50 (cells): 3.76 µM (active)

COc1cc(CNC2CCCC2)cc(Cl)c1OCc1ccc(F)cc1
CC50 [6]: 19.8 µM (active)
EC50 [7]: 6.68 µM (active)
IC50 (Protein skinhead-1): 3.33 µM (active)

CSS(=O)(=O)c1cccc2cccnc12
EC50 [8]: 19.1 µM (active)
IC50 [9]: 9.66 µM (active)
IC50 (Large T antigen): 65.2 µM (active)

C=CCN(CC=C)S(=O)(=O)c1ccc(C(=O)Nc2nnc(COC)o2)cc1
EC50 [10]: 63.3 µM (active)
CC50 [11]: 15.4 µM (active)

COc1cccc(C(=O)NCCC2=CCCCC2)c1
EC50 (HT-1080): > 50 µM (not active)
EC50 [5]: < 0.2 µM (active)

CCOC(=O)N1CCN(c2cc(NCCO)c([N+](=O)[O-])c3nonc23)CC1
IC50 [1]: > 50 µM (not active)

CNC(=O)[C@@H]1C[C@H]1[C@@H](NC(=O)OCc1ccccc1)c1ccccc1
CC50 [11]: > 40 µM (active)
IC50 (Protein Tat): > 100 µM (active)
